The text below walks through data of patent US11098266B2, “Organic compounds” (Givaudan SA, priority 2017, dated 2021).

The structures appear in SMILES notation.

The nature of test [1]: GC-odor threshold values (gas chromatograph with sniff port, panel of trained evaluators). The settings on record: for odour threshold value geometric mean: absolute amount delivered at the sniff port, 5 panelists, identical conditions. The source says: As used herein, “odor threshold value” means the lowest concentration of a volatile organic compound in air which can be detected by smell. Generally speaking, it can be said that a compound with a low odor threshold value is more powerful than a compound with a high odor threshold value and thus allows the use of very low concentration in a fragrance composition to achieve an olfactory effect.
According to standard procedures known to the person skilled in the art, threshold values for volatile perfumery compounds are determined on a gas chromatograph equipped with a sniff port by a panel of trained evaluators. The lowest concentration smelled by each panelist is recorded as the individual threshold value expressed in ng (absolute amount of compound delivered at the sniff port).
Under identical conditions the odour threshold value for the individual compounds was measured.

The test system of another test is yellow mealworm. The settings on record: J. Agr. Food Chem. 20(1), 1972, 65-69; cited from earlier work.
Setting [2] is: ratio of GC-odour threshold values.

As to `COC(=O)OCCC(C)CCC=C(C)C` (racemic) [Example 1, 3,7-dimethyloct-6-en-1-yl methyl carbonate], in test [1], the “odour threshold value geometric mean” value came to 16 ng. Also, in test [1] (setting [2]), the “odour threshold value, times lower compared to Citronellyl Acetate” value was 15 times and the “odour threshold value, times lower compared to Ethyl Citronellyl Carbonate” value is 10 times. In the test with yellow mealworm, the juvenile hormone activity result is listed as “juvenile hormone activity”.

In the case of `CC(C)=CCCC(C)CCOC(=O)Oc1ccccc1` (stereo not drawn) [3,7-Dimethyloct-6-en-1-yl phenyl carbonate], the juvenile hormone activity entry with yellow mealworm is on record as “juvenile hormone activity”.

Turning to `CC(C)=CCCC(C)CCO` (stereo not drawn) [Citronellol, 3,7-dimethyloct-6-en-1-ol], in test [1], the “odour threshold value geometric mean” value was found to be 5.2 ng.

As for `CC(=O)OCCC(C)CCC=C(C)C` (stereo not drawn) [Citronellyl Acetate, 3,7-dimethyloct-6-en-1-yl acetate], in test [1], the “odour threshold value geometric mean” value stood at 241 ng.

Take `CCOC(=O)OCCC(C)CCC=C(C)C` (stereo not drawn) [Ethyl Citronellyl Carbonate, 3,7-dimethyloct-6-en-1-yl ethyl carbonate]: the “odour threshold value geometric mean” value in test [1] is given as 158 ng. For the same compound, the juvenile hormone activity result with yellow mealworm is given as “juvenile hormone activity”.
